The values that follow come from the supplement of paper PMC7600603.

Test [1] has as its system DLD1 NRF2-GOF. Nature of the test: drug sensitivity score (DSS) viability (DSS score); higher = more sensitive; extreme values may be limits of the assay. The conditions noted are these: 72 h; CellTiter-Glo viability. The gist of the method:
(§1)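 EC50 and drug sensitivity score, the latter a normalised area under the curve, were calculated from logistic dose-response fits. The fits had four parameters and used CellTiter-Glo viability data read on a Pherastar FS reader 72 h after treatment, normalised to vehicle wells and 100-μM positive-control wells. Treated cells were isogenic DLD1 colorectal cancer cells, NRF2 wild-type or CRISPR gain-of-function, exposed in 384-well plates to library compounds at 5 concentrations spanning a 10,000-fold range.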

Test [2] has as its system DLD1 NRF2-WT. Described as above. The conditions noted are these: 72 h; CellTiter-Glo viability. The gist of the method: as §1
On the technique in general: ATP-based viability assays read luminescence as a measure of living cells.

Test [3] relates to DLD1 NRF2-GOF. Nature of the test: drug sensitivity score (DSS) cytotoxicity (DSS score); higher = more toxic; extreme values may be limits of the assay. The conditions noted are these: 72 h; CellTox Green cytotoxicity. Summed up: (§2)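 Isogenic DLD1 colorectal cancer cells, either NRF2 wild-type or CRISPR gain-of-function, were grown in DMEM with 10% FBS. They were exposed in 384-well plates to library compounds at 5 concentrations spanning a 10,000-fold range. After 72 h, cytotoxicity was read by CellTox Green on a Pherastar FS reader and normalised to vehicle wells and 100-μM positive-control wells. TC50 and drug sensitivity score (a normalised area under the curve) came from logistic dose-response fits.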

The subject of test [4] is DLD1 NRF2-WT. Described as above. The conditions noted are these: 72 h; CellTox Green cytotoxicity. The gist of the method:
as §2

The subject of test [5] is DLD1 NRF2-GOF. The conditions noted are these: 72 h; CellTiter-Glo viability. The gist of the method: as §1
Test [6] deals with DLD1 NRF2-GOF. In words: TC50 cytotoxicity; higher = less toxic. The conditions noted are these: 72 h; CellTox Green cytotoxicity. Summed up:
as §2

Test [7] relates to DLD1 NRF2-WT. Nature of the test: TC50 cytotoxicity; higher = less toxic. The conditions noted are these: 72 h; CellTox Green cytotoxicity. The gist of the method: as §2
The subject of test [8] is DLD1 NRF2-WT. The conditions noted are these: 72 h; CellTiter-Glo viability. Summed up: as §1

Turning to `CC(=O)Nc1ccc(C(=O)Nc2ccccc2N)cc1` [Tacedinaline], the drug sensitivity score was found to be 4 in test [1], 1.9 in test [2], 0 in test [3] and 0 in test [4]. In test [5], this compound yielded an EC50 viability of 58.2 nM. Also, the TC50 cytotoxicity in test [6] and in test [7] was over 1000 nM each time.
For `COc1cc2ncnc(Oc3cccc(NC(=O)Nc4cc(C(C)(C)C(F)(F)F)on4)c3)c2cc1OC`, the drug sensitivity score in test [1] was found to be 0.6; in test [2] it was 1.4; in test [3] it was 0; in test [4] it was 0. In test [8], this compound yielded an EC50 viability of over 10000 nM. Further, the TC50 cytotoxicity in test [6] and in test [7] was over 10000 nM each time.
Regarding `Cc1cc(F)c(C(=O)Nc2cccc(-c3nncn3C(C)C)n2)cc1-n1cnc(C2CC2)c1` [Selonsertib], the drug sensitivity score in test [1] stood at 3.7; in test [2] it was 4.9; in test [3], 0; in test [4], 0. In addition, the EC50 viability in test [8] came to 13.3 nM. Also, the TC50 cytotoxicity in test [6] and in test [7] was over 1000 nM each time.
Regarding `CCC1=C[C@@H]2CN(C1)Cc1c([nH]c3ccccc13)[C@@](C(=O)OC)(c1cc3c(cc1OC)N(C)[C@H]1[C@@](O)(C(=O)OC)[C@H](OC(C)=O)[C@]4(CC)C=CCN5CC[C@]31[C@@H]54)C2` [Vinorelbine], the drug sensitivity score came out at 32.2 in test [1], 7.5 in test [3] and 8.1 in test [4]. The compound also had an EC50 viability in test [5] of 5.1 nM. The TC50 cytotoxicity in test [6] was over 10000 nM.
`O=C(Nc1cnn2ccc(N3CCC[C@@H]3c3cc(F)ccc3F)nc12)N1CC[C@H](O)C1` [Larotrectinib]: the drug sensitivity score in test [1] was 0.5; in test [3], 0; in test [4], 0. This compound had an EC50 viability in test [5] of over 1000 nM. For the same compound, the TC50 cytotoxicity in test [6] and in test [7] was over 1000 nM in each case.
On to `Cn1ncc(Cl)c1-c1cc(C(=O)N[C@H](CN)Cc2cccc(F)c2)sc1Cl` [Afuresertib], for which the drug sensitivity score in test [1] was 0.6; in test [2] it was 1; in test [3], 0; in test [4], 0. The compound further had an EC50 viability in test [5] of over 1000 nM. Moreover, the TC50 cytotoxicity in test [6] and in test [7] was over 1000 nM in each case.
On to `Cc1noc2c1-c1ccccc1C(c1ccc(Cl)cc1)=N[C@H]2CC(N)=O` [CPI-0610], for which the results for the drug sensitivity score in test [1], in test [3] and in test [4] were 3.6, 0 and 0, respectively. The compound further had an EC50 viability in test [5] of 362 nM. Also, the TC50 cytotoxicity in test [6] and in test [7] was over 10000 nM in each case.
For `Cn1cnc2c(F)c(Nc3ccc(Br)cc3Cl)c(C(=O)NOCCO)cc21` [Selumetinib], the drug sensitivity score stood at 0 in test [1], 2 in test [2], 0 in test [3] and 0 in test [4]. The compound further came in with an EC50 viability in test [5] of over 10000 nM. Besides, the TC50 cytotoxicity in test [6] and in test [7] was over 10000 nM in each case.
With `Cc1nn(C)c(COc2ccc(N3CCN(S(=O)(=O)N(C)C)CC3)cc2)c1-c1cccc2c(CCCOc3cccc4ccccc34)c(C(=O)O)n(CCN3CCOCC3)c12`, the drug sensitivity score in test [1] stood at 2.1; in test [2], 1.9; in test [3], 0; in test [4], 0. The compound also showed an EC50 viability in test [8] of over 50000 nM. In addition, the TC50 cytotoxicity in test [6] and in test [7] was over 50000 nM throughout.
Regarding `CO[C@H]1C[C@@H]2CC[C@@H](C)[C@@](O)(O2)C(=O)C(=O)N2CCCC[C@H]2C(=O)O[C@H]([C@H](C)C[C@@H]2CC[C@@H](OCCO)[C@H](OC)C2)CC(=O)[C@H](C)/C=C(\C)[C@@H](O)[C@@H](OC)C(=O)[C@H](C)C[C@H](C)/C=C/C=C/C=C/1C` [Everolimus], the drug sensitivity score is 2.5 in test [1], 4.7 in test [2], 0 in test [3] and 0 in test [4]. In test [8], this compound displayed an EC50 viability of 11.7 nM. The TC50 cytotoxicity in test [6] and in test [7] was over 100 nM in each case.
Consider `COCCNCc1ccc(-c2cc3nccc(Oc4ccc(NC(=O)C5(C(=O)Nc6ccc(F)cc6)CC5)cc4F)c3s2)nc1` [Sitravatinib], for which the drug sensitivity score worked out at 5.5 in test [1], 4.6 in test [2], 0 in test [3] and 0 in test [4]. Besides, the EC50 viability in test [8] was determined as 138 nM. For the same compound, the TC50 cytotoxicity in test [6] and in test [7] was over 2500 nM each time.
In the case of `C[C@@H](Nc1cc(F)cc(F)c1)c1cc(C(=O)N(C)C)cc2c(=O)cc(N3CCOCC3)oc12` [AZD-8186], the drug sensitivity score was determined as 5.2 in test [1], 3.6 in test [2], 0 in test [3] and 0 in test [4]. Further, the EC50 viability in test [8] was 59.8 nM. Further, the TC50 cytotoxicity in test [6] and in test [7] was over 1000 nM each time.
For `COc1cccc2c1C(=O)c1c(O)c3c(c(O)c1C2=O)C[C@@](O)(C(=O)CO)C[C@@H]3O[C@H]1C[C@H](N)[C@@H](O)[C@H](C)O1` [Epirubicin], the drug sensitivity score stood at 8.6 in test [1], 0 in test [3] and 0 in test [4]. In test [5], this compound gave an EC50 viability of 153 nM. Also, the TC50 cytotoxicity in test [6] and in test [7] was over 1000 nM each time.
Turning to `CC1(C)NC(=O)N(c2ccc([N+](=O)[O-])c(C(F)(F)F)c2)C1=O` [Nilutamide], the drug sensitivity score was 3.6 in test [1], 0 in test [2], 0 in test [3] and 0 in test [4]. In addition, the EC50 viability in test [8] is over 10000 nM. Also, the TC50 cytotoxicity in test [6] and in test [7] was over 10000 nM each time.
With `CO[C@H]1C[C@@H]2CC[C@@H](C)[C@@](O)(O2)C(=O)C(=O)N2CCCC[C@H]2C(=O)O[C@H]([C@H](C)C[C@@H]2CC[C@@H](OP(C)(C)=O)[C@H](OC)C2)CC(=O)[C@H](C)/C=C(\C)[C@@H](O)[C@@H](OC)C(=O)[C@H](C)C[C@H](C)/C=C/C=C/C=C/1C` [Ridaforolimus], the drug sensitivity score in test [1] is 0.8; in test [2] it was 3.5. In addition, in test [5], the EC50 viability is over 100 nM.
As to `FC(F)(F)c1ccc(/C=C/c2nc(COc3ccc(CCCCn4ccnn4)cc3)co2)cc1` [Mubritinib], the drug sensitivity score was determined as 2.4 in test [1], 7.4 in test [2], 0 in test [3] and 0 in test [4]. This compound also registered an EC50 viability in test [8] of 33.4 nM. Further, the TC50 cytotoxicity in test [6] and in test [7] was over 1000 nM each time.
With `N[C@@H]1CCCN(c2c(/C=C3\SC(=O)NC3=O)cccc2-c2ccccc2)C1` [AZD1208], the values for the drug sensitivity score in test [1], in test [3] and in test [4] were 7.2, 0 and 0, respectively. In test [5], this compound displayed an EC50 viability of over 10000 nM. Also, the TC50 cytotoxicity in test [6] and in test [7] was over 10000 nM each time.
Regarding `CCc1c(C(=O)C(N)=O)c2c(OCC(=O)O)cccc2n1Cc1ccccc1` [Varespladib], the drug sensitivity score amounted to 0.8 in test [1], 3.9 in test [2], 0 in test [3] and 0 in test [4]. The EC50 viability in test [8] is 1220 nM. In addition, the TC50 cytotoxicity in test [6] and in test [7] was over 10000 nM each time.
As for `Cn1cncc1[C@@](N)(c1ccc(Cl)cc1)c1ccc2c(c1)c(-c1cccc(Cl)c1)cc(=O)n2C` [Tipifarnib], the drug sensitivity score in test [1] was 6.2; in test [2] it was 5.4; in test [3], 0; in test [4], 0. Further, the EC50 viability in test [8] is 109 nM. Besides, the TC50 cytotoxicity in test [6] and in test [7] was over 10000 nM in each case.
Take `CC1(C)CNc2cc(NC(=O)c3cccnc3NCc3ccncc3)ccc21` [Motesanib]: the drug sensitivity score in test [1] turned out to be 3.1; in test [2] it was 4.5; in test [3], 0; in test [4] it was 0. For the same compound, in test [8], the EC50 viability was determined as 565 nM. The TC50 cytotoxicity in test [6] and in test [7] was over 10000 nM each time.
Turning to `Cn1nnc2c(C(N)=O)ncn2c1=O` [Temozolomide], the values for the drug sensitivity score in test [1], in test [3] and in test [4] were 4.1, 0 and 0, respectively. This compound also came in with an EC50 viability in test [5] of 8090 nM. For the same compound, the TC50 cytotoxicity in test [6] and in test [7] was over 100000 nM throughout.
As for `CC1(C)C(C(=O)Nc2ccc(S(=O)(=O)c3ccc(NC(=O)C4C(C)(C)C4(C)C)cc3)cc2)C1(C)C` [BRD7116], the drug sensitivity score in test [1] stood at 7.6; in test [2] it was 5.5. The EC50 viability in test [5] amounted to 48.2 nM.
As for `CN(C)CC#Cc1ccc(OCCCc2sc(N3CCc4cccc(C(=O)Nc5nc6ccccc6s5)c4C3)nc2C(=O)O)c(F)c1`, the drug sensitivity score was 0 in test [1] and 3.3 in test [3]. The compound further yielded an EC50 viability in test [5] of over 10000 nM. For the same compound, the TC50 cytotoxicity in test [6] came to 994 nM.
